Experimental data from ChEMBL document CHEMBL1955745, “Synthesis and in vitro antitumor activity of asperphenamate derivatives as autophagy inducer” (Bioorg Med Chem Lett, 2012).
Values after ≈ are worked out from the molar mass of the structure shown. Active and inactive are the calls of the source. The calls are words filed in the database; no cut-off is given here.

Columns and labels:
[1] = system: MCF7; test: Induction of autophagy in human MCF7 cells assessed as increase in cytoplasmic acidic vesicular organelles at 5 to 10 uM after 72 hrs by MDC staining-based fluorescence microscopic analysis; type: functional, cell-based
[2] = system: Bel-7402; test: Antiproliferative activity against human Bel7402 cells after 3 days by MTT assay; type: functional, cell-based; details: Bel-7402, 72 h
[3] = system: MCF7; test: Cell cycle arrest in human MCF7 cells assessed as accumulation at G0/G1 phase at 10 uM after 72 hrs by propidium iodide staining-based flow cytometric analysis (reference value: 60.01%); type: functional
[4] = system: MCF7; test: Cell cycle arrest in human MCF7 cells assessed as accumulation at S phase at 10 uM after 72 hrs by propidium iodide staining-based flow cytometric analysis (reference value: 14.35%); type: functional
[5] = system: MCF7; test: Cell cycle arrest in human MCF7 cells assessed as accumulation at G0/G1 phase at 10 uM after 24 hrs by propidium iodide staining-based flow cytometric analysis (reference value: 60.01%); type: functional
[6] = system: MCF7; test: Induction of autophagy in human MCF7 cells assessed as increase in […] level at 5 to 10 uM after 48 hrs by Western blot analysis; type: functional, cell-based
[7] = system: MCF7; test: Cell cycle arrest in human MCF7 cells assessed as accumulation at subG1 phase at 10 uM after 24 hrs by propidium iodide staining-based flow cytometric analysis (reference value: 4.11%); type: functional
[8] = system: MCF7; test: Cell cycle arrest in human MCF7 cells assessed as accumulation at G2/M phase at 10 uM after 72 hrs by propidium iodide staining-based flow cytometric analysis (reference value: 20.62%); type: functional
[9] = system: HeLa; test: Antiproliferative activity against human HeLa cells after 3 days by MTT assay; type: functional, cell-based; details: 72 h
[10] = system: MCF7; test: Induction of autophagy in human MCF7 cells assessed as decrease in LC3-1 level at 5 to 10 uM after 48 hrs by Western blot analysis; type: functional, cell-based
[11] = system: MCF7; test: Cell cycle arrest in human MCF7 cells assessed as accumulation at G2/M phase at 10 uM after 48 hrs by propidium iodide staining-based flow cytometric analysis (reference value: 20.62%); type: functional
[12] = Thermodynamic solubility of the compound in phosphate buffer at pH 7.4 at 1 mg after 10 mins by HPLC -UV analysis; type: physicochemical; details: read-out: Therm_solubility
[13] = system: MCF7; test: Induction of autophagy in human MCF7 cells assessed as autophagic cells at 5 uM after 72 hrs by MDC staining-based flow cytometry (reference value: 2.14%); type: functional
[14] = system: MCF7; test: Cell cycle arrest in human MCF7 cells assessed as accumulation at G0/G1 phase at 10 uM after 48 hrs by propidium iodide staining-based flow cytometric analysis (reference value: 60.01%); type: functional
[15] = system: MCF7; test: Induction of autophagy in human MCF7 cells assessed as autophagic cells at 10 uM after 72 hrs by MDC staining-based flow cytometry (reference value: 2.14%); type: functional
[16] = system: MCF7; test: Antiproliferative activity against human MCF7 cells after 3 days by MTT assay; type: functional, cell-based; details: MCF7, 72 h
[17] = system: MCF7; test: Cell cycle arrest in human MCF7 cells assessed as accumulation at S phase at 10 uM after 48 hrs by propidium iodide staining-based flow cytometric analysis (reference value: 14.35%); type: functional
[18] = system: MCF7; test: Cell cycle arrest in human MCF7 cells assessed as accumulation at G2/M phase at 10 uM after 24 hrs by propidium iodide staining-based flow cytometric analysis (reference value: 20.62%); type: functional
[19] = system: MCF7; test: Ratio of IC50 for cisplatin to compound IC50 for human MCF7 cells after 3 days by MTT assay; type: functional
[20] = system: MCF7; test: Induction of autophagy in human MCF7 cells assessed as increase in cytoplasmic acidic vesicular organelles at 5 to 10 uM after 72 hrs by AO staining-based fluorescence microscopic analysis; type: functional, cell-based
[21] = system: MCF7; test: Selectivity ratio of IC50 for human HeLa cells to IC50 for human MCF7 cells; type: functional
[22] = system: MCF7; test: Cell cycle arrest in human MCF7 cells assessed as accumulation at subG1 phase at 10 uM after 48 hrs by propidium iodide staining-based flow cytometric analysis (reference value: 4.11%); type: functional
[23] = system: MCF7; test: Selectivity ratio of IC50 for human […] cells to IC50 for human MCF7 cells; type: functional
[24] = system: MCF7; test: Cell cycle arrest in human MCF7 cells assessed as accumulation at S phase at 10 uM after 24 hrs by propidium iodide staining-based flow cytometric analysis (reference value: 14.35%); type: functional
[25] = system: MCF7; test: Cell cycle arrest in human MCF7 cells assessed as accumulation at subG1 phase at 10 uM after 72 hrs by propidium iodide staining-based flow cytometric analysis (reference value: 4.11%); type: functional

O=C(Cc1ccccc1OCc1ccccc1)N[C@H](Cc1ccccc1)C(=O)OC[C@@H](Cc1ccccc1)NC(=O)c1ccccc1
Activity [1]: Active
IC50 [2]: 32.6 µM
Activity [3]: 57.08%
Activity [4]: 16.69%
Activity [5]: 59.85%
Activity [6]: Active
Activity [7]: 1.76%
Activity [8]: 20.38%
IC50 [9]: 27 µM
Activity [10]: Active
Activity [11]: 17.07%
solubility thermodynamic at 10 min [12]: 223 µg/mL (≈ 356 µM)
Activity [13]: 15.62%
Activity [14]: 59.4%
Activity [15]: 52.62%
IC50 [16]: 6.06 µM
Activity [17]: 17.85%
Activity [18]: 21.65%
Ratio IC50 [19]: 1.5
Activity [20]: Active
Ratio IC50 [21]: 5
Activity [22]: 3.16%
Ratio IC50 [23]: 5
Activity [24]: 15.98%
Activity [25]: 2.83%
